According to patent US12655116B2, “Substituted isophthalic acid diamides” (Bayer Aktiengesellschaft, priority 2020, dated 2026):

Columns and labels:
AMARE [1] = experiment: Pre-emergence herbicidal action against AMARE; assay type: in vivo, Amaranthus retroflexus
In short: (§1)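 Pre-emergence soil-surface spray of formulated compound (WP or EC; 600 to 800 l/ha; 0.2% wetting agent) over seeds sown in sandy loam. After 3 weeks under greenhouse conditions, damage is estimated visually in percent against untreated plants.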

DIGSA [2] = experiment: Post-emergence herbicidal action against DIGSA; assay type: in vivo, Digitaria sanguinalis; settings: 20 g/ha
In short: (§2)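 Greenhouse plants in sandy loam were sprayed at the one-leaf stage, 2 to 3 weeks after sowing, with WP or EC formulations as aqueous suspension or emulsion (600 to 800 l/ha water, 0.2% wetting agent). Visual damage was scored about 3 weeks later versus untreated controls, 0% = like control, 100% = dead.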

MATIN [3] = experiment: Pre-emergence herbicidal action against MATIN; assay type: in vivo, Matricaria inodora
In short: as §1

LOLRI = experiment: Pre-emergence herbicidal action against LOLRI; assay type: in vivo, Lolium rigidum; settings: 80 g/ha
In short: as §1

SETVI [4] = experiment: Pre-emergence herbicidal action against SETVI; assay type: in vivo, Setaria viridis; settings: dosage 80 g/ha
In short: as §1

MATIN [5] = experiment: Post-emergence herbicidal action against MATIN; assay type: in vivo, Matricaria inodora
In short: as §2

VIOTR [6] = experiment: Pre-emergence herbicidal action against VIOTR; assay type: in vivo, Viola tricolor
In short: as §1

PHBPU [7] = experiment: Pre-emergence herbicidal action against PHBPU; assay type: in vivo, Pharbitis purpurea
In short: as §1

POLCO = experiment: Pre-emergence herbicidal action against POLCO; assay type: in vivo, Polygonum convolvulus; settings: dosage 80 g/ha
In short: as §1

ALOMY [8] = experiment: Pre-emergence herbicidal action against ALOMY; assay type: in vivo, Alopecurus myosuroides; settings: 80 g/ha, pre-emergence, scored visually after 3 weeks vs untreated controls (100% = plants have died, 0% = like control plants)
In short: as §1

DIGSA [9] = experiment: Pre-emergence herbicidal action against DIGSA; assay type: in vivo, Digitaria sanguinalis
In short: as §1

VIOTR [10] = experiment: Post-emergence herbicidal action against VIOTR; assay type: in vivo, Viola tricolor; settings: 20 g/ha
In short: as §2

ECHCG [11] = experiment: Pre-emergence herbicidal action against ECHCG; assay type: in vivo, Echinochloa crus-galli; settings: 80 g/ha
In short: as §1

ABUTH [12] = experiment: Pre-emergence herbicidal action against ABUTH; assay type: in vivo, Abutilon theophrasti; settings: for Pre-emergence action against ABUTH (herbicidal activity): 80 g/ha, scored visually after 3 weeks vs untreated controls (100% = plants have died, 0% = like control plants); for Pre-emergence action against ABUTH (herbicidal activity in percent): dosage 20 g/ha, scored visually after 3 weeks vs untreated controls, 100% = plants have died, 0% = like control plants
In short: as §1

AMARE [13] = experiment: Post-emergence herbicidal action against AMARE; assay type: in vivo, Amaranthus retroflexus; settings: 20 g/ha, visual assessment about 3 weeks after treatment, 100% = plants have died, 0% = like control plants
In short: as §2

ECHCG [14] = experiment: Post-emergence herbicidal action against ECHCG; assay type: in vivo, Echinochloa crus-galli
In short: as §2

ABUTH [15] = experiment: Post-emergence herbicidal action against ABUTH; assay type: in vivo, Abutilon theophrasti; settings: visual assessment about 3 weeks after treatment vs untreated controls
In short: as §2

AVEFA = experiment: Pre-emergence herbicidal action against AVEFA; assay type: in vivo, Avena fatua; settings: 80 g/ha, pre-emergence
In short: as §1

SETVI [16] = experiment: Post-emergence herbicidal action against SETVI; assay type: in vivo, Setaria viridis; settings: dosage 20 g/ha
In short: as §2

ALOMY [17] = experiment: Post-emergence herbicidal action against ALOMY; assay type: in vivo, Alopecurus myosuroides; settings: dosage 20 g/ha, visual assessment about 3 weeks after treatment vs untreated controls
In short: as §2

PHBPU [18] = experiment: Post-emergence herbicidal action against PHBPU; assay type: in vivo, Pharbitis purpurea
In short: as §2

VERPE = experiment: Pre-emergence herbicidal action against VERPE; assay type: in vivo, Veronica persica; settings: dosage 80 g/ha
In short: as §1

[19] = 20 g/ha, scored visually after 3 weeks vs untreated controls, 100% = plants have died, 0% = like control plants
[20] = 80 g/ha, scored visually after 3 weeks vs untreated controls (100% = plants have died, 0% = like control plants)

Row | Structure (SMILES) | Pre-emergence action against AMARE in % (AMARE [1]; [19]) | Pre-emergence action against AMARE in % (AMARE [1]; [20]) | Post-emergence action against DIGSA (DIGSA [2]) | Pre-emergence action against MATIN in % (MATIN [3]; dosage 20 g/ha) | Pre-emergence action against MATIN in % (MATIN [3]; dosage 80 g/ha) | Pre-emergence action against LOLRI in % (LOLRI) | Pre-emergence action against SETVI in % (SETVI [4]) | Post-emergence action against MATIN in % (MATIN [5]; dosage 20 g/ha) | Pre-emergence action against VIOTR in % (VIOTR [6]; dosage 20 g/ha) | Pre-emergence action against VIOTR in % (VIOTR [6]; dosage 80 g/ha) | Pre-emergence action against PHBPU in % (PHBPU [7]; dosage 80 g/ha) | Pre-emergence action against POLCO in % (POLCO) | Pre-emergence action against ALOMY (herbicidal activity) (ALOMY [8]) | Pre-emergence action against DIGSA in % (DIGSA [9]; dosage 20 g/ha) | Pre-emergence action against DIGSA in % (DIGSA [9]; dosage 80 g/ha) | Pre-emergence action against ECHCG in % (ECHCG [11]) | Pre-emergence action against ABUTH (herbicidal activity) (ABUTH [12]) | Pre-emergence action against ABUTH (herbicidal activity in percent) (ABUTH [12]) | Post-emergence action at 20 g/ha against AMARE in % (AMARE [13]) | Post-emergence action against ECHCG in % (ECHCG [14]; dosage 20 g/ha) | further results
1 | CCn1nnnc1NC(=O)c1ccc(C(F)(F)F)c(C(=O)NCC2CC2)c1Cl [Example 2-132] | 100% | 100% | 80% | 100% | 100% | 90% | 100% | 80% | 100% | 100% | 90% | 80% | 90% | 80% | 100% | 100% | 100% | 100% | 90% | 90% | Post-emergence action against MATIN in % (MATIN [5]; dosage 5 g/ha): 80%; Post-emergence action against VIOTR in % (VIOTR [10]): 90%; Post-emergence action against ABUTH in % (ABUTH [15]; dosage 20 g/ha): 80%; Pre-emergence action against AVEFA in % (AVEFA): 90%; Post-emergence action against SETVI in % (SETVI [16]): 80%
2 | CCCNC(=O)c1c(C(F)F)ccc(C(=O)Nc2nnnn2CC)c1Cl [Example 2-154] | 100% | 100% | 90% | 100% | 100% | 90% | 100% | 80% |  | 100% | 100% | 90% | 100% | 100% | 100% | 100% | 100% | 100% | 90% | 90% | Pre-emergence action against PHBPU in % (PHBPU [7]; dosage 20 g/ha): 80%; Post-emergence action against ALOMY in % (ALOMY [17]): 80%; Post-emergence action against ABUTH in % (ABUTH [15]; dosage 5 g/ha): 80%; Post-emergence action against ABUTH in % (ABUTH [15]; dosage 20 g/ha): 90%; Post-emergence action against PHBPU in % (PHBPU [18]; dosage 5 g/ha): 90%; Post-emergence action against PHBPU in % (PHBPU [18]; dosage 20 g/ha): 90%; Pre-emergence action against VERPE in % (VERPE): 100%
3 | COCCNC(=O)c1c(C(F)(F)F)ccc(C(=O)Nc2nnnn2C)c1Cl [Example 1-138] | 100% | 100% |  | 90% | 100% | 90% | 100% |  | 100% | 100% | 90% | 90% | 90% | 100% | 100% | 100% | 100% | 100% | 90% | 90% | Pre-emergence action against PHBPU in % (PHBPU [7]; dosage 20 g/ha): 80%; Post-emergence action against ALOMY in % (ALOMY [17]): 90%; Post-emergence action against ECHCG in % (ECHCG [14]; dosage 5 g/ha): 80%; Post-emergence action against PHBPU in % (PHBPU [18]; dosage 5 g/ha): 80%; Post-emergence action against PHBPU in % (PHBPU [18]; dosage 20 g/ha): 90%; Pre-emergence action against VERPE in % (VERPE): 90%; Post-emergence action against SETVI in % (SETVI [16]): 80%
